The experiment addresses T1, Human peroxidasin (PXDN) (Homo sapiens, UniProt Q92626).
T1 construct: the four immunoglobulin domains and the peroxidase domain (amino acid residue 246-1314); made in house; host or cells: transient transfection
T1 sequence (Q92626 246-1314): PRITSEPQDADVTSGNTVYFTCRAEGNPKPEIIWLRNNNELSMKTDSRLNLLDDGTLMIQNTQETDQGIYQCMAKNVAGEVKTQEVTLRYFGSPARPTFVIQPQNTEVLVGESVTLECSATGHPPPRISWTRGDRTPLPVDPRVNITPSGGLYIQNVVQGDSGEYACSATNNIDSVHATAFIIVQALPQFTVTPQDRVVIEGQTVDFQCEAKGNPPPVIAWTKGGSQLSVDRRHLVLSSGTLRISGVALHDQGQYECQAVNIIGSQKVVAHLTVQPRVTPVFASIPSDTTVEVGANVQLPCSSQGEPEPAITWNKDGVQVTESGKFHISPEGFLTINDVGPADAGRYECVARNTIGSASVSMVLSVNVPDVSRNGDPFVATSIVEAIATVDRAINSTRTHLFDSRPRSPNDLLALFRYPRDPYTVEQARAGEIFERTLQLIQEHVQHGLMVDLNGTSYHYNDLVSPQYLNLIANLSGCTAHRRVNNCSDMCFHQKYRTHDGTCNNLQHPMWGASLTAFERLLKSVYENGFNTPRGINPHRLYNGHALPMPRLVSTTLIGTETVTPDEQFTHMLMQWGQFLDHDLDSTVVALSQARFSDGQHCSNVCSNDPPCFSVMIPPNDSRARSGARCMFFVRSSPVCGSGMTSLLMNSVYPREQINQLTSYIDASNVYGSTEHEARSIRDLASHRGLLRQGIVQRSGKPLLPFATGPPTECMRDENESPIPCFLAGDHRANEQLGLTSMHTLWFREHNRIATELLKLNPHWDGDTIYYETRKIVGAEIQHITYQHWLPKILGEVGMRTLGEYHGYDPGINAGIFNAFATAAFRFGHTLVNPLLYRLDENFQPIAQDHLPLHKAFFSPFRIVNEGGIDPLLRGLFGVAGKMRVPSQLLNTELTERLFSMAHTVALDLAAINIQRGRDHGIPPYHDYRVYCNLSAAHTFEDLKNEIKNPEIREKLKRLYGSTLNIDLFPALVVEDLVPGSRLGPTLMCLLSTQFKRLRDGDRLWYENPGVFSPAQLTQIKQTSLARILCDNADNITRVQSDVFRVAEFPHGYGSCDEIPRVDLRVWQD
Kind of experiment: Amplex oxidation activity assay in the presence of bromide. Format: biochemical. As for the experimental part: A previously characterized truncated peroxidasin variant, formerly annotated as hsPxd01-con4 [46], consisting of the four immunoglobulin domains and the peroxidase domain (amino acid residue 246-1314; numbering refers to full length PXDN including the signal peptide as shown in Uniprot Q92626), was used for all experiments using PXDN protein. Cloning, transient transfection, expression and the quality control of the purified recombinant PXDN was performed routinely, as described previously. Molar concentrations are per heme and were determined using an extinction coefficient of 147,500 M^−1 cm^−1 for the heme Soret peak at 412 nm. For the conversion to mg, a molar mass of 140,000 g mol^−1 was used and calculated from the molar concentration per heme. For simplicity we will refer to this variant as peroxidasin (PXDN) throughout the manuscript.
100 µL of 50 μM Amplex™ UltraRed and 20 μM hydrogen peroxide in 50 mM phosphate buffer pH 7.4 and the respective inhibitor at twice of its final concentration was added to a 96-well plate. […] The plate was incubated in the dark for 15 min at 37 °C before the fluorescence of resorufin, the resulting Amplex oxidation product, was detected using a SpectraMax iD3 fluorescent plate reader from Molecular Devices LLC, San Jose, CA 95134 (λex 544 nm, λem 590 nm, end point measurement). The same assay was also performed with 50 mM bromide present. To determine IC50 values, Amplex oxidation (measured as the end point as described above) was plotted versus the concentration of the inhibitor and expressed as % inhibition.

Consider `Oc1cc(O)cc(O)c1` [Phloroglucinol, 1,3,5-Trihydroxybenzene], for which the IC50 was found to be 948 nM. For the same molecule, the inhibition at 20 µM (20 μM inhibitor, 50 mM bromide) is greater than 95%.

These data come from PMC10812467, “Peroxidasin Inhibition by Phloroglucinol and Other Peroxidase Inhibitors” (Antioxidants, 2023).
